In test [1] the test system is iagA′-lacZ fusion (S. typhi strain Ty267). The experiment in a line: β-galactosidase activity of the iagA′-lacZ fusion in favourable LB medium. As to conditions: for β-Galactosidase activity of the iagA′-lacZ fusion (Table VII): fatty acid as sodium salt, control 22022 ± 1177; for β-Galactosidase activity of the iagA′-lacZ fusion (Table VII) / inhibition of the expression of the iagA′-lacZ fusion in S. typhi (in words) / β-galactosidase activity of the iagA′-lacZ fusion (Table II): 5 mM in favourable LB medium, 6 hours at 37° C.; for inhibition of the expression of the iagA′-lacZ fusion in S. typhi (in words): sodium salt; for β-galactosidase activity of the iagA′-lacZ fusion (Table II): control 12134 ± 1811. Format: cell-based. Here is the method:
(§1) The favourable LB medium (high osmolarity and concentration of Ca^2+ions) was defined as being the standard LB medium modified so as to have a final NaCl concentration of 300 mM and a final Ca concentration of 5 mM.
Each of the strains described above was cultured at 37° C. on agar or in TCS broth. The P-galactosidase activity was determined using 4-methyl-umbelliferyl-p-D-galactopyranoside sold by the company Sigma, according to the technique of Klarsfeld et al. (Mol. Mibrobiol., 1994, 13, 585-597). The results, expressed in P-galactosidase units (fluorescence per hour and per OD600), represent the mean of the values obtained in at least three independent experiments. The standard deviations were less than 10% of the values presented. […]
The β-galactosidase activity of the iagA′-lacZ fusion was measured after incubation for 6 hours at 37° C. with shaking (200 rpm).
The S. typhi Ty267 strain (iagA′-lacZ fusion) was seeded into favourable LB medium and into favourable LB medium containing the fatty acid to be tested, in the form of its sodium salt, at the final concentration of 5 mM.

In test [2] the test system is Gram-positive or Gram-negative microorganisms. Conditions: acid pH (free acid form); cited from earlier work.
In test [3] the test system is Gram-positive or Gram-negative bacteria. As to conditions: in vitro, concentration not given; cited from earlier work.
The subject of test [4] is iagA′-lacZcat fusion in S. typhi strain Ty267. Put plainly: "Biotype 100" plate screen for carbon-based substrates that repress the iagA′-lacZcat fusion (β-galactosidase activity). The test is classed as cell-based. Conditions: "Biotype 100" cupule, amount of substrate not known; favourable LB medium; 36 hours at 37° C.; control cupule without substrate 11 250. Here is the method: (§2) Each of the strains described above was cultured at 37° C. on agar or in TCS broth. The P-galactosidase activity was determined using 4-methyl-umbelliferyl-p-D-galactopyranoside sold by the company Sigma, according to the technique of Klarsfeld et al. (Mol. Mibrobiol., 1994, 13, 585-597). The results, expressed in P-galactosidase units (fluorescence per hour and per OD600), represent the mean of the values obtained in at least three independent experiments. The standard deviations were less than 10% of the values presented.
A “Biotype 100”® plate sold by the company BioMerieux is composed of 100 microcupules. Each micro-cupule contains a dehydrated carbon-based substrate, with the exception of the first cupule, which is a control without substrate (the amount of dehydrated substrate per cupule is not given by the manufacturer).
In the context of the present example, these plates were used to search for carbon-based compounds which would block the expression of the invasion genes in Salmonella.
For this, the S. typhi strain Ty267, which is a derivative of the parental strain Ty2 carrying the iagA′-lacZcat transcriptional fusion (Table I), was cultured in TCS broth for 18 hours at 37° C. with shaking (200 rpm).
This culture was then diluted 100-fold in favourable LB medium (0.6 ml of culture for 60 ml of favourable LB), and then this suspension was used immediately to seed the 100 cupules of a “Biotype 100”® plate, in a proportion of 450 μl of suspension per cupule.
After incubation for 36 hours in an incubator at 37° C., the activity of the iagA′-lacZcat fusion in the Ty267 strain was determined for the culture of each cupule.
By comparing the value of the P-galactosidase activity measured in a cupule containing a carbon-based substrate with that of the control cupule without substrate, it was possible to investigate whether a substrate had no effect on, activated or repressed the expression of the iagA′-lacZcat fusion.
The S. typhi strain Ty267 (iagA′-lacZ fusion), suspended in the favourable LB medium, was used to seed the “Biotype 100”® plates.
The β-galactosidase activity expressed by the iagA′-lacZ fusion was determined for the culture in each cupule. With respect to the β-galactosidase activity measured in the control cupule without substrate (11 250 β-galactosidase units), no substrate caused an increase in the expression of the iagA′-lacZ fusion.

The next test deals with Salmonellae. The experiment in a line: Bactericidal or bacteriostatic effect on the Salmonellae at neutral pH. Format: cell-based, Salmonella.
Test [5] relates to invF′-lacZ fusion (S. typhi strain Ty272). The experiment in a line: β-galactosidase activity of the invF′-lacZ fusion in favourable LB medium. Format: cell-based. As to conditions: LB medium with 300 mM NaCl and 1 mM EGTA (depleted of divalent cations) versus favourable LB medium. The method, then:
as §1, §2
(§3) For this, the S. typhi strains Ty267, Ty272 and Ty277, which carry the iagA′-lacZ, invF′-lacZ and sipB′-lacZ fusions, respectively, (see Table I), were cultured in the favourable LB or unfavourable LB medium.
(§4) The action of these two compounds on the expression of the iagA′-lacZ, invF′-lacZ and sipB′-lacZ fusions was studied by measuring the β-galactosidase activity expressed by these fusions as a function of the time of culturing (samples removed every two hours).

Test [6] deals with sipB′-lacZ fusion (S. typhi strain Ty277). The experiment in a line: β-galactosidase activity of the sipB′-lacZ fusion in favourable LB medium. The test is classed as cell-based. As to conditions: LB medium with 300 mM NaCl and 1 mM EGTA (depleted of divalent cations) versus favourable LB medium. Here is the method: as §1, §2, §3, §4

Turning to `CCCCC(=O)O` [Valeric acid], in test [1], the “β-Galactosidase activity of the iagA′-lacZ fusion (Table VII)” value (“β-Galactosidase activity … (Table VII)” below) is reported as 509 ± 91 β-galactosidase units and the “inhibition of the expression of the iagA′-lacZ fusion in S. typhi (in words)” value (“inhibition” below) was “as strongly as sodium caprylate”.

`CCCCCCC(O)C(=O)O` (stereo not shown) [2-Hydroxycaprylic acid]: in test [1], the “β-Galactosidase activity … (Table VII)” value was 225 ± 72 β-galactosidase units and the “inhibition” value is given as “does not modify the expression”.

As to `CCCCCCCCC(=O)O` [Pelargonic acid], in test [1], the “β-Galactosidase activity … (Table VII)” value was 383 ± 54 β-galactosidase units and the “inhibition” value is “as strongly as sodium caprylate”.

For the compound `CCCCCCC(N)C(=O)O` (stereo not shown) [2-Aminocaprylic acid], in test [1], the “β-Galactosidase activity … (Table VII)” value is recorded as 33149 ± 2520 β-galactosidase units and the “inhibition” value is recorded as “totally blocks the inhibitory activity”.

With `CCCCCCCCCC(=O)O` [decanoic acid], the “bactericidal activity on a great variety of Gram-positive or Gram-negative microorganisms” value in test [2] is given as “bactericidal activity”.

Consider `CCCCCCCC/C=C\CCCCCCCC(=O)O` [oleic acid], for which the “bacteriostatic or bactericidal effect on Gram-positive or Gram-negative bacteria” value in test [3] was “very effective”.

As to `NCCCCCCCC(=O)O` [8-Aminocaprylic acid], in test [1], the “β-Galactosidase activity … (Table VII)” value is 18077 ± 1263 β-galactosidase units and the “inhibition” value was “totally blocks the inhibitory activity”.

Turning to `O=C([O-])Cc1ccccc1.[Na+]` [sodium phenylacetate], the “β-galactosidase activity expressed by the iagA′-lacZ fusion in the cupule” value in test [4] is listed as 81 β-galactosidase units. In addition, in test [1], the “β-galactosidase activity of the iagA′-lacZ fusion (Table II)” value (“β-galactosidase activity … (Table II)” for short) is 149 ± 24 β-galactosidase units and the “inhibition” value is recorded as “inhibit”. Moreover, the “bactericidal or bacteriostatic effect on the Salmonellae” value (“bactericidal or bacteriostatic effect” below) with Salmonellae was “none of these compounds has any significant bactericidal or bacteriostatic effect”.

On to `CC(=O)O` [Acetic acid], for which, in test [1], the “β-Galactosidase activity … (Table VII)” value was 29265 ± 1692 β-galactosidase units and the “inhibition” value is listed as “do not make it possible to inhibit”.

Take `CCC(=O)O` [Propionic acid]: in test [1], the “β-Galactosidase activity … (Table VII)” value is listed as 14650 ± 1333 β-galactosidase units and the “inhibition” value is “do not make it possible to inhibit”.

`O=C([O-])CCc1ccccc1.[Na+]` [sodium 3-phenylpropionate]: the “β-galactosidase activity expressed by the iagA′-lacZ fusion in the cupule” value in test [4] was 166 β-galactosidase units. In test [1], the “β-galactosidase activity … (Table II)” value is 297 ± 95 β-galactosidase units and the “inhibition” value is “inhibit”. Also, the “bactericidal or bacteriostatic effect” value in the test with Salmonellae is “none of these compounds has any significant bactericidal or bacteriostatic effect”.

`CCCC(=O)O` [Butyric acid]: in test [1], the “β-Galactosidase activity … (Table VII)” value was 21225 ± 1741 β-galactosidase units and the “inhibition” value was “do not make it possible to inhibit”.

As to `CCCCCC(=O)O` [Caproic acid], in test [1], the “β-Galactosidase activity … (Table VII)” value is on record as 347 ± 21 β-galactosidase units and the “inhibition” value is reported as “as strongly as sodium caprylate”.

`O=C([O-])CCCc1ccccc1.[Na+]` [sodium 4-phenylbutyrate]: in test [1], the “β-galactosidase activity … (Table II)” value is 198 ± 32 β-galactosidase units and the “inhibition” value is “inhibited”. Also, the “bactericidal or bacteriostatic effect” value with Salmonellae is “none of these compounds has any significant bactericidal or bacteriostatic effect”.

`O=C(O)CN(CCOCCOCCN(CC(=O)O)CC(=O)O)CC(=O)O` [EGTA, ethylene glycol bis(β-aminoethyl ether) N,N,N′,N′-tetraacetic acid]: the “expression of the iagA′-lacZ fusion” value in test [1] (LB medium with 300 mM NaCl and 1 mM EGTA (depleted of divalent cations) versus favourable LB medium) was “repression”. Further, the “expression of the invF′-lacZ fusion” value in test [5] is recorded as “repression”. Further, in test [6], the “expression of the sipB′-lacZ fusion” value is recorded as “repression”.

Take `O=C(O)CCCCCCCO` [8-Hydroxycaprylic acid]: in test [1], the “β-Galactosidase activity … (Table VII)” value is reported as 593 ± 49 β-galactosidase units and the “inhibition” value is “does not modify the expression”.

As to `CCCCC/C=C\C/C=C\CCCCCCCC(=O)O` [linoleic acid], the “bacteriostatic or bactericidal effect on Gram-positive or Gram-negative bacteria” value in test [3] is on record as “very effective”.

In the case of `CCCCCC(=O)O` [n-hexanoic acid], in test [2], the “bactericidal activity on a great variety of Gram-positive or Gram-negative microorganisms” value is recorded as “bactericidal activity”.

As to `CCCCCCC(=O)O` [Oenanthic acid], in test [1], the “β-Galactosidase activity … (Table VII)” value is listed as 525 ± 43 β-galactosidase units and the “inhibition” value is “as strongly as sodium caprylate”.

These data come from US20040116523A1, “Use of c4-c10 acids for preventing gram-negative bacterial infections” (priority 2000, published 2004).
